Patent US6750244B2, “Compounds active at a novel site on receptor-operated calcium channels useful for treatment of neurological disorders and diseases” (NPS Pharmaceuticals, Inc., priority 1993, dated 2004)
Where “and” joins values, the source holds several entries; their conditions need not be identical. Equal values may be shown once. Where a name gives a salt, the structure may show the parent alone. Read-outs that look alike come from different tables or passages of the source.

Experiments:
sound-induced seizures = assay: Sound-induced seizures in Frings mice (reflex epilepsy); type: in vivo; conditions: Mus musculus, ip; Frings mice
in vivo = conditions: Frings, mouse, in vivo, ip
Experimental: In this assay, Frings and CF1 mice were injected with test compound and placed on a knurled rod which rotated at a speed of 6 rpm. The ability of the mice to maintain equilibrium for long periods of time was determined; those mice that were unable to maintain equilibrium on the rotorod for 1 min in each of 3 trials were considered impaired.

NMDA receptor = assay: Inhibition of NMDA/glycine-induced increases in intracellular calcium in cultured rat cerebellar granule cells (RCGC); type: cell-based; conditions: NMDA/glycine-induced increases in intracellular calcium, cultured rat cerebellar granule cells; read-out: IC50 (μM) vs. NMDA
[1] = target: NMDA receptor-ionophore complex (site labeled by [3H]MK-801); assay: Inhibition of [3H]MK-801 binding in rat cortical/hippocampal washed membrane preparations; conditions: read-out: IC50 (μM) vs. [3H]MK-801, rat cortical/hippocampal washed membranes
[2] = tested on: mean arterial blood pressure

IC50 (NMDA receptor)	IC50 [1] [µM]	Structure (SMILES)	also measured
1.4 µM and 1.9 µM	1	COc1cccc(C(CCN)c2cccc(OC)c2)c1 [Compound 115, 3,3-bis(3-methoxyphenyl)-1-propylamine]	–
0.38 µM	2.3	Cc1cccc(C(CCN)c2cccc(F)c2)c1 (stereo not drawn) [Compound 28, 3-(3-fluorophenyl)-3-(3-methylphenyl)-1-propylamine]	–
1.4 µM	6.1	NCC=C(c1ccccc1)c1ccccc1 [Compound 81, 3,3-diphenyl-prop-2-ene-1-amine]	–
0.829 µM	0.372	NCCC(Oc1ccccc1)c1ccccc1 (stereo not drawn) [Compound 146]	–
7.9 µM	23.4	OC1(C(c2cccc(F)c2)c2cccc(F)c2)CCNC1 (stereo not drawn) [Compound 84]	–
0.398 µM	6	NCC(Cc1cccc(F)c1)Cc1cccc(F)c1 [Compound 126]	–
0.162 µM	14.1	CCC(NCCC(c1ccccc1)c1ccccc1)c1ccccc1 (stereo not drawn) [Compound 91]	–
0.092 µM	17.4	CCC(NCCC(c1ccccc1)c1ccccc1)c1cccc(C)c1 (stereo not drawn) [Compound 168]	–
0.342 µM	0.794	NCCC(c1cccc(F)c1)c1cccs1 (stereo not drawn) [Compound 83]	–
0.134 µM	0.324	COc1ccc(F)cc1C(CCN)c1cccc(F)c1 (stereo not drawn) [Compound 61, 3-(3-fluorophenyl)-3-(3-fluoro-6-methoxyphenyl)-1-propylamine]	–
2.6 µM	7.05	NCCC1c2ccccc2Oc2ccccc21 [Compound 182]	–
0.195 µM	0.351	NCCC(Oc1cccc(F)c1)c1cccc(Cl)c1 (stereo not drawn) [Compound 150]	–
0.102 µM	0.38	NCCC(c1cccc(F)c1)c1ccccc1F (stereo not drawn) [Compound 52, 3-(2-fluorophenyl)-3-(3-fluorophenyl)-1-propylamine]	–
0.38 µM	0.661	NCCC(c1cccc(F)c1)c1ccccc1O (stereo not drawn) [Compound 103, 3-(2-hydroxyphenyl)-3-(3-fluorophenyl)-1-propylamine]	–
0.217 µM	4.2	NCCC(c1ccccc1F)c1ccccc1F [Compound 53, 3,3-bis(2-fluorophenyl)-1-propylamine]	–
0.185 µM	10.4	CCC(NCCC(c1ccccc1)c1ccccc1)c1cccc(Cl)c1 (stereo not drawn) [Compound 159]	–
0.071 µM	0.18	Cc1ccccc1C(CCN)c1cccc(F)c1 (stereo not drawn) [Compound 27, 3-(3-fluorophenyl)-3-(2-methylphenyl)-1-propylamine]	–
0.724 µM	14	CC(C)(CN)C(c1cccc(F)c1)c1cccc(F)c1 [Compound 41, 3,3-bis(3-fluorophenyl)-2,2-dimethyl-1-propylamine]	–
0.609 µM	1.17	NCCN1c2ccccc2CCc2ccccc21 [Eli Lilly Compound, reference compound]	–

Structure (SMILES)	IC50 (NMDA receptor)	IC50 [1] [µM]	also measured
NCCC1c2ccccc2CCc2ccccc21 [Compound 156, 5-(2-Aminoethyl)-5H-10,11-dihydrodibenzo[a,d]cycloheptene hydrochloride]	0.069 µM	–	ED50 (sound-induced seizures): 5 mg/kg; TD50 (in vivo): 17.4 mg/kg; IC50 ([1]; hydrochloride): 0.09 µM and 0.081 µM
Cc1ccc(F)cc1C(CCN)c1cccc(F)c1 (stereo not drawn) [Compound 57, 3-(3-fluorophenyl)-3-(3-fluoro-6-methylphenyl)-1-propylamine]	0.028 µM	0.063	ED50 (sound-induced seizures): 1 mg/kg; TD50 (in vivo): 6 to 8 mg/kg
NCCc1ccccc1Oc1ccccc1 [Compound 132]	1.3 µM	6.4	–
CCNCCCNCCCNCCCNC(=O)Cc1c[nH]c2ccc(F)cc12 [Compound 11]	4 µM	–	Drop in Mean Arterial Blood Pressure ([2]; 1 mg/kg i.v., rats): 20 mm Hg at 1; Drop in Mean Arterial Blood Pressure: duration ([2]; 1 mg/kg i.v., rats): mg/kg i.v., 30 min; duration of the hypotensive effect ([2]; systemic administration in rats): approximately 30 min
COc1ccccc1CC(=O)NC(CC(N)=O)C(=O)NCCCCCNCCCNCCCNC(=O)C(N)CCCCN (stereo not drawn) [Compound 8]	0.099 µM	219	–
